Test results reported in patent US4436732A, “Medicated compound for treating diseases infected by virus of the herpes group” (priority 1981, dated 1984).

Tests used:
[1] = test system: HV (virus of the herpes group); assay: antiviral properties in vitro in a culture of cells of fibroblasts of a chicken embryo (virus-suppressing effect, cytopathogenic effect); type: cell-based; details: 10 μg/ml; 100 TCD50 HV
Procedure: The study of antiviral properties of the active principle has been carried out in in vitro experiments in a culture of cells of fibroblasts of a chicken embryo following a commonly employed procedure for primary screening of antiviral preparations. Cells are grown in flasks or test-tubes on the nutrient medium 199 with the addition of 5 to 10 vol.% of cattle serum. Then, for the contact of the virus with cells, into the flasks a virus-containing material is added in doses of 1, 10, 100 and 1,000 TCD50. […] Flasks or test-tubes are then subjected to thermosetting at the temperature of 37° C. The virus-suppressing effect is determined for 5 days by way of comparison of the presence of cytopathogenic effect in the control and test flasks and test-tubes. As the control use is made of: control of the single layer of cells, the control of the active principle without virus and the control of the virus without the active principle.

[2] = cardiological effect / electrocardiographic characteristics; type: in vivo, rabbits; details: for increase of amplitude of cardiac contractions: P=0.05
Text: (§1) The cardiological effect of the active principle has been studied in experiments on an isolated cat's heart; the effect on electrocardiographic characteristics has been studied in experiments on rabbits; the vasodilative effect--on vessels of an isolated rabbit's ear; the spasmolytic effect--on acetylcholine and barium spasms of smooth muscles of an isolated section of a rat's small intestine.
The studies have shown that upon the intravenous administration to rabbits of the active principle in the dose of 20 mg/kg it causes increased amplitude of cardiac contractions by 34% (P=0.05), in the dose of 50 mg/kg--by 41% (P=0.05); rarefaction of the rhythm of cardiac contractions in rabbits by 10-18% on the average and increase of the voltage of the peak P by 32%. […] A slight increase of the voltage of the peak P on the average by 20% is observed.

[3] = test system: vessels of an isolated rabbit's ear; assay: vasodilative effect on vessels of an isolated rabbit's ear
Text: as §1

[4] = test system: smooth muscles of an isolated section of a rat's small intestine; assay: spasmolytic effect on acetylcholine and barium spasms of smooth muscles of an isolated section of small intestine
Text: as §1

[5] = effect on acute exudative and chronical proliferative phases of inflammation; type: in vivo, mice
Procedure: The effect of the active principle on the acute exudative and chronical proliferative phases of inflammation in doses of 10 and 50 mg/kg has been studied upon per os administration to mice.

[6] = antidiabetic effect: glucose in blood under alimentary carbohydrate load; type: in vivo, rabbits; details: per os
Procedure: To reveal the antidiabetic effect of the active principle, its effect on the content of glucose in rabbit's blood under the conditions of alimentary carbohydrate load has been studied. The active principle is administered in doses of 50 and 100 mg/kg once per os through a tube in a 1% starch paste. The experiment scheme is the following: the content of glucose in blood is determined in rabbit's blood on an empty stomach, and 40 minutes thereafter the content of glucose is again determined in blood. Afterwards, glucose is administered to the rabbits at the rate of 1.5 g/kg and the content of glucose in blood is determined 15, 30, 45, 60, 90 and 120 minutes after the administration thereof.

[7] = acute toxicity and tolerance; set-up: species or system white mice, rats, guinea pigs and dogs; details: in vivo
Procedure: The study of an acute toxicity and tolerance of the active principle and the medicated compound in the form of tablets has been carried out on white mice, rats, guinea pigs and dogs with different modes of administration.
The active principle and tablets of the are administered in the form of an aqueous suspension hypodermally, intraperitoneally and in stomach.

teratogenic activity = type: in vivo, rats; details: 10 and 100 mg/kg per os daily for 30 days
Procedure: The study of the teratogenic activity of the active principle has been carried out on 15 couples of adult rats weighing 350 g divided into 3 groups of 5 couples in each. The females of the first group were daily administred 10 mg/kg of the active principle per os for 30 days until the birth of small rats; the females of the second group were administered 100 mg/kg of the active principle during the same period; the females of the third group were the control.

[8] = intra-stomach, 50 and 150 mg/kg

For `O=c1c2cc(O)c(O)cc2oc2cc(O)c([C@@H]3O[C@H](CO)[C@@H](O)[C@H](O)[C@H]3O)c(O)c12` [active principle, 2-C-β-D-glucopyranosyl-1,3,6,7-tetraoxyxanthone], the virus-suppressing effect [1] was “high virus-suppressing effect”, the “effect on duration of intervals of the cardiac cycle” value [2, 8] was “no substantial effect” and the “effect on the rhythm of cardiac contractions” value [2, 8] was “no substantial effect”. The “increase of the voltage of the peak P” value ([2]; intra-stomach, 50 and 150 mg/kg, on the average) was 20%, the “increase of the voltage of the peak P” value ([2]; intravenous, rabbits) was 32% and the “increase of amplitude of cardiac contractions” value ([2]; intravenous, rabbits, 20 mg/kg) was 34%. The “increase of amplitude of cardiac contractions” value ([2]; intravenous, rabbits, 50 mg/kg) was 41%, the “rarefaction of the rhythm of cardiac contractions” value ([2]; intravenous, rabbits, on the average) was 10-18% and the cardiostimulant effect ([2]; rabbit, in vivo) was “slight cardiostimulant effect”. For the same molecule, the vasodilative effect [3] was “no vasodilative”, the spasmolytic effect [4] was “no vasodilative and spasmolytic effect” and the “exudative phase in chronical proliferative inflammation” value ([5]; model of chronical proliferative inflammation) was “somewhat suppresses”. The “development of the exudative phase of inflammation” value ([5]; per os, 50 mg/kg) was “suppresses the development of the exudative phase of inflammation”, the “antiphlogistic activity relative to formalin edema” value ([5]; per os, 50 mg/kg, P below 0.005) was 12.7 and the “antiphlogistic activity relative to dextran edema” value ([5]; per os, 50 mg/kg, P below 0.05) was 16.5. For the same molecule, the “lowering of penetration of skin vessels” value ([5]; per os, 50 mg/kg, P below 0.05) was 15%, the antiphlogistic effect ([5]; per os, 10 and 50 mg/kg) was “slight antiphlogistic effect” and the “formation of granulation-fibrous tissue” value ([5]; proliferative stage of chronical inflammation) was “retards the formation of a granulation-fibrous tissue”. The “effect on the glycemic curve” value ([6]; 50 mg/kg) was “no effect”, the “increase of glucose tolerance” value ([6]; 100 mg/kg, uncertainly increased) was 14% and the “toxicity (overall)” value [7] was “low-toxic”. The LD50 ([7]; ip, intraperitoneal) was 3000 to 4000 mg/kg, the LD50 ([7]; po, in-stomach) was 10000 mg/kg and the LD50 ([7]; sc, hypodermal) was over 5000 mg/kg. For the same molecule, the teratogenic properties (teratogenic activity) was “no teratogenic properties”.
